Laboratory results reported in patent US20230348418A1, “ISOINDOLINONE COMPOUNDS” (Monte Rosa Therapeutics, Inc., priority 2021, published 2023).
Where two headings read alike, the source gives them in different places.

What was measured:
GSPT1 = GSPT1 (Homo sapiens, UniProt P15170+Q96SW2); assay: GSPT1 degradation in ABC-1 cells; assay type: cell-based; design: endogenous in cells
Procedure: (§1) GSPT1 was degraded by compound 10 after six hours of treatment in high N-Myc NCI-H1155 and ABC-1 cells with a DC50 of 3 nM and 22 nM, respectively (x-axys represents […]M concentration of compound 10; y-axis represents the viability in %).

[1] = target: T1, Full length wild-type cereblon CRBN (Homo sapiens, UniProt Q96SW2); assay: Fluorescence polarization (FP) assay, cereblon binding
T1 construct: Full length wild-type cereblon CRBN (80.0 nM, 10 μL) was incubated in assay buffer
How it was run: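 Full-length wild-type human CRBN (80.0 nM) was preincubated with compound for 30 min at room temperature in 20 mM HEPES pH 8.0, 150 NaCl, 0.5 mM TCEP and 0.05% Tween 20. A Cy5-type thalidomide-linked fluorescent probe was then added. The FP signal was normalized to the DMSO control to derive IC50.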

ABC-1 = assay: viability of NSCLC cell line, high N-Myc (FIG. 2A); assay type: cell-based; conditions: ABC-1, high N-Myc; compared to low N-Myc EBC-1 and NCI-H2023
Procedure: as §1

IKZF1 (Ikaros) = target: T2, IKZF1 (Ikaros) (Homo sapiens, UniProt Q13422); assay: Western blot selectivity assay in MM1S cells: IKZF1; assay type: cell-based; design: key: A represents a no degradation observed at 30 μM; B represents trace degradation at 30 μM (below 20%); C represents weak degradation at 30 μM (below 50%); D represents degradation at 30 μM (>90%); E represents degradation at 3 μM (>90%); F represents degradation at 0.3 μM (>90%); conditions: MM1S cells, 0.3, 3 and 30 μM, 6 hours
T2 construct: endogenous in cells; host or cells: MM1S (ATCC CRL-2974)
Procedure: MM1S cells were purchased from ATCC (cat. Number CRL-2974), sub-cultured in 90% RPMI 1640 with 10% FBS, supplemented with 1×P/S and incubated at 37° C., 5% CO2. Compounds were stored as 10 mM DMSO stock. For the assay, MM1S cells (3 million cells/well) were plated in 6-well plates and incubated over night. Cells were treated with respective compounds using a serial dilution: 0.3 μM, 3 μM and 30 μM as well as a vehicle only (DMSO) control for 6 hours. Media with suspension cells was subsequently transferred to 15 mL conical tubes, wells rinsed twice with ice-cold PBS and merged with cell suspension in respective 15 mL conical tube. Cells were spinned down, supernatant aspirated, pellets resuspended in ice-cold PBS and transferred to microtubes. Cells were spinned down, supernatant aspirated and pellets resuspended in 120 μL RIPA lysis buffer supplemented with protease and phosphatase inhibitors. Cell lysates were incubated on ice for 20 minutes followed by centrifugation at >20,000×g for 5 min. Supernatants were transferred to fresh microtubes and stored at −80° C. Total protein concentration was determined using a BCA assay with a BSA standard curve and concentration of all samples was adjusted to 1 mg/mL. 25 μL 4×LDS sample buffer supplemented with 100 mM DTT was added to 75 μL sample. Samples were centrifuged (8,000×g, 1 min) and incubated at 95° C. for 5 min followed by another centrifugation step (8,000×g, 1 min). 20 μL of each sample was loaded on a 4-12% gel alongside a protein molecular weight marker. Gels were run in the presence of MOPS buffer at 80 Volts for 30 min, followed by 120 Volts for 1.5 h and proteins subsequently transferred onto nitrocellulose membranes at 20 Volts for 7 min using an iBlot2 Gel Transfer Device. Membranes were then cut horizontally into two pieces, covering 80-50 kDa and 50-25 kDa. Blocking the membranes was performed by gently shaking in 5% (w/v) skim milk in TSB-T for 1 hr at room temperature. All primary antibodies were used at a 1/1000 in 5% (w/v) BSA dissolved in TBST and incubated with membranes over night at 4° C. Anti-IKZF1 (Ikaros; D6N9Y; 14859S), anti-IKZF3 (Aiolos; D1C1E; 15103S) antibodies were purchased from Cell Signalling Technology, anti-ZFP91 antibody from Bethyl laboratories, anti-GSPT1 from Sigma Aldrich (HPA052488) and anti CK1alpha from AbCam (ab206652). After three washes with 1×TBST for 5 min, HRP-coupled secondary antibodies diluted in 5% (w/v) BSA/TBST (Goat Anti-Rb IgG, dil. 1/10,000; Goat Anti-Mouse IgG, dil. 1/5000) were added for 1 hr at room temperature. After three washes with 1×TBST (5 minutes each), membranes were incubated with ECL reagent for 1 min at room temperature. Chemiluminescence signals were then detected using a LAS-4000 system with default settings and signals quantified using Image Studio Lite software (version 5.2). Membrane parts previously incubated with antibody against CK1alpha were stripped off antibodies by incubating with stripping buffer for 30 minutes followed by three washed with TBST (5 min each), blocking with 5% (w/v) skim milk for 1 hr, and incubation with primary antibody against GAPDH overnight at 4° C. Subsequent washes, incubation with secondary antibody and signal acquisition were performed as described above.

T1 sequence (Q96SW2 whole entry): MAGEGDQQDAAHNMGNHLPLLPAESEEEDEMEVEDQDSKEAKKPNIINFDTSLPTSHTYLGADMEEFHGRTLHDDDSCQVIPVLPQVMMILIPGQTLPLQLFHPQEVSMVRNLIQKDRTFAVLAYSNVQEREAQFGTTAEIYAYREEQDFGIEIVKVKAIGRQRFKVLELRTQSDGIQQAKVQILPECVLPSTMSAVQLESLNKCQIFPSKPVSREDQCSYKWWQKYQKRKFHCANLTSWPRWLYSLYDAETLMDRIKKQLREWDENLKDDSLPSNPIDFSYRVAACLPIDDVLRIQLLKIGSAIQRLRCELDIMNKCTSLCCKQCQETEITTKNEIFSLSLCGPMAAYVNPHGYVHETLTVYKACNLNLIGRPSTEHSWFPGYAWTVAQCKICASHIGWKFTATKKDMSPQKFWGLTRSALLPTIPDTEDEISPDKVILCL
T2 sequence (Q96SW2 whole entry partner): as the sequence (Q96SW2 whole entry) above
T2 sequence (Q16531 2-1140 partner limits assumed): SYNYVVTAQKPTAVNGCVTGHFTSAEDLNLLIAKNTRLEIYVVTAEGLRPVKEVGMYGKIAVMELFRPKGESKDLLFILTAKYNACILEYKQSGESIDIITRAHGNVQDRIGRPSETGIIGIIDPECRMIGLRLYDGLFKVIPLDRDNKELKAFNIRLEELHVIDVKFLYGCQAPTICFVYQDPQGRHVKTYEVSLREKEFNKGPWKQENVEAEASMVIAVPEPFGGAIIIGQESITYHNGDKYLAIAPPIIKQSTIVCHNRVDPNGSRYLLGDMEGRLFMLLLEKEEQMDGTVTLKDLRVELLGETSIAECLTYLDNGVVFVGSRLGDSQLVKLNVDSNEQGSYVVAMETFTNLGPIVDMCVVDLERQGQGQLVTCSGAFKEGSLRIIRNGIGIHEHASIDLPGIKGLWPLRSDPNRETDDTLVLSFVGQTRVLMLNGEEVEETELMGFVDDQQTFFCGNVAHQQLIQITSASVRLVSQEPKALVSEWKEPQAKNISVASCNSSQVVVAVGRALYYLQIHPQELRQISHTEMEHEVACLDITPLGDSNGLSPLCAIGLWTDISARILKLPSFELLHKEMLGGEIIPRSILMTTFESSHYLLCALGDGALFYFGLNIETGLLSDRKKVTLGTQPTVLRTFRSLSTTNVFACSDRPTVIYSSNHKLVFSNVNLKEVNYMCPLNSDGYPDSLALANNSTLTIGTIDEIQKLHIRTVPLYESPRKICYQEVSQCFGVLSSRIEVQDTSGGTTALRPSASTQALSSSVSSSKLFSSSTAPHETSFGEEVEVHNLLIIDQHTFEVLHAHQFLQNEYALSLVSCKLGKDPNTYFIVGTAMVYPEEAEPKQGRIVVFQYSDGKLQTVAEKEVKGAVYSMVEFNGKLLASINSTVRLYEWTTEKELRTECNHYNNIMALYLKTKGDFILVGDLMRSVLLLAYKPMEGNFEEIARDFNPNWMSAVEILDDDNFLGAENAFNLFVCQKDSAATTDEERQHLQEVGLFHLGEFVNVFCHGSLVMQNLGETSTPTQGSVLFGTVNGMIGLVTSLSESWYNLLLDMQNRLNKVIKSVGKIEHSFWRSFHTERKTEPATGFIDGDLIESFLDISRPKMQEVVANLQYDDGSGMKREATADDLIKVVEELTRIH
T2 sequence (Q13422 whole entry): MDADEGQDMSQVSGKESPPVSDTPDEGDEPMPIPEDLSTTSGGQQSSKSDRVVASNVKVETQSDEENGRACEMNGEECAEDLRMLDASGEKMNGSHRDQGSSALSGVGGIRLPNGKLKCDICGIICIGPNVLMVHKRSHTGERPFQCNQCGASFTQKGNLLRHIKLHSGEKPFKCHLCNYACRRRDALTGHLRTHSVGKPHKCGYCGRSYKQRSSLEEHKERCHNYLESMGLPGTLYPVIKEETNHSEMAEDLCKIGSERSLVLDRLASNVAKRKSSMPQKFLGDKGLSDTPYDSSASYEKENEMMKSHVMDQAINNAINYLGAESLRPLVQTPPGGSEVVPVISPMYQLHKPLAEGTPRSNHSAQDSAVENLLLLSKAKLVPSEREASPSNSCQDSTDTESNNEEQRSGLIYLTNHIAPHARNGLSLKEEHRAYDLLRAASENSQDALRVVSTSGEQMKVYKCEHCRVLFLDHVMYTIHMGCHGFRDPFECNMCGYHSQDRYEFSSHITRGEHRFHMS
Sequence of GSPT1 (P15170 whole entry): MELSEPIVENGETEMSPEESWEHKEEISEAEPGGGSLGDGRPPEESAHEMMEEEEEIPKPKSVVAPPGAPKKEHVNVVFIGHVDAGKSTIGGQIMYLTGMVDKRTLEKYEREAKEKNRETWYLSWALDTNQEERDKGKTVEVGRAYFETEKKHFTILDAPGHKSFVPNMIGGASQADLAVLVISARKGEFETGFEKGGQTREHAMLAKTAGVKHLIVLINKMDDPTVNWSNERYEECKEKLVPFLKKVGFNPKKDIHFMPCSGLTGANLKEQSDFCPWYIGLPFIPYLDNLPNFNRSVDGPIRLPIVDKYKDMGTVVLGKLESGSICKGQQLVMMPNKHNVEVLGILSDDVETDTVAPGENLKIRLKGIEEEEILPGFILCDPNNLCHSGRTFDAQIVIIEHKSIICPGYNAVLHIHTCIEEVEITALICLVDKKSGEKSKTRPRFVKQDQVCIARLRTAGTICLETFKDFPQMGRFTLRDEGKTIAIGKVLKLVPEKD
Sequence of GSPT1 (Q96SW2 whole entry): as the sequence (Q96SW2 whole entry) above
Sequence of GSPT1 (Q16531 2-1140 partner limits assumed): as the sequence (Q16531 2-1140 partner limits assumed) above

extent of GSPT1 degradation (GSPT1): complete degradation
IC50 ([1]; bounds stated in the text lists b2059-b2061, read-out: IC50 value): < 1.7 µM
IC50 ([1]; cereblon binding, class code, read-out: rFP IC50): 1.1 to 1.7 µM
IKZF1 degradation (IKZF1 (Ikaros)): A
Structure (SMILES): Cc1ccc(NC(=O)OCc2ccc3c(c2)C(=O)N(C2CCC(=O)NC2=O)C3)cc1Cl (centres unmarked) [Compound 10]
sensitivity to treatment (viability in %) (ABC-1): highly sensitive
